In this test the target is T1, MST1 (Homo sapiens, UniProt Q13043).
T1 sequence (Q13043 1-487): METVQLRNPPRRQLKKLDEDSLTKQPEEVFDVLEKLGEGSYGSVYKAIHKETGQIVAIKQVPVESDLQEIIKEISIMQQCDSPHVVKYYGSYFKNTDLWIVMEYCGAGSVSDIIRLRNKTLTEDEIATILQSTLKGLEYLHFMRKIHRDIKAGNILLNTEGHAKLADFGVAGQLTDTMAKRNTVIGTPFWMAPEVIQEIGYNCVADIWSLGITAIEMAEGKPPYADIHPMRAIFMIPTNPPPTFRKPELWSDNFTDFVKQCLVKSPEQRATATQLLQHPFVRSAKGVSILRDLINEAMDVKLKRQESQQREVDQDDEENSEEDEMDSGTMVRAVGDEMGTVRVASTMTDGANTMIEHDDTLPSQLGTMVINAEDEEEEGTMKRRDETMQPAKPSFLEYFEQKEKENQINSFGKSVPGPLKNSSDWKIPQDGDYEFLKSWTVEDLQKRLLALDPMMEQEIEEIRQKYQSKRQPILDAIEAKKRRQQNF
The test is described as follows: In vitro measurement of MST1 inhibition (Z′-Lyte kinase assay). The format is biochemical.

Where [1] appears, read: 1 μM ATP, read-out: IC50 (μM) 1 μM ATP.
The mark [2] stands for this setting: 50 μM ATP, read-out: IC50 (μM) 50 μM ATP.

One may read the IC50 as the concentration that inhibits the measured activity by half.

Each structure is given as a SMILES string. Read-outs that look alike come from different tables or passages of the source.

`CN(C1CC1)S(=O)(=O)c1ccc(-c2cnc(N)c(-c3ccc4c(c3)CCNC4=O)n2)cc1F` [4-(5-amino-6-(1-oxo-1,2,3,4-tetrahydroisoquinolin-6-yl)pyrazin-2-yl)-N-cyclopropyl-2-fluoro-N-methylbenzenesulfonamide]: the half-maximal inhibitory concentration (IC50) is below 0.01 µM under setting [1] and below 0.01 µM under setting [2].
With `COc1ccc(-c2cnc(N)c(C(=O)NC3CCCCC3)n2)cc1OC` [3-amino-N-cyclohexyl-6-(3,4-dimethoxyphenyl)pyrazine-2-carboxamide], under setting [2], the IC50 is below 0.15 µM.
In the case of `N#Cc1ccc(-c2cnc(N)c(-c3cc4c(cn3)C(=O)NCC4)c2)cc1` [4-(6-amino-5-(8-oxo-5,6,7,8-tetrahydro-2,7-naphthyridin-3-yl)pyridin-3-yl)benzonitrile], the half-maximal inhibitory concentration (IC50) is below 0.05 µM under setting [1] and below 0.01 µM under setting [2].
Take `Nc1ncc(-c2ccc3c(c2)CC(=O)N3)cc1-c1ccc2c(c1)CCNC2=O` [6-(2-amino-5-(2-oxoindolin-5-yl)pyridin-3-yl)-3,4-dihydroisoquinolin-1(2H)-one]: the IC50 is below 0.05 µM under setting [1] and below 0.05 µM under setting [2].
`CCOc1cc(-c2cc(-c3ccc(F)cc3)cnc2N)ccc1C(N)=O` [4-(2-amino-5-(4-fluorophenyl)pyridin-3-yl)-2-ethoxybenzamide]: the concentration for half-maximal inhibition (IC50) under setting [2] is below 0.15 µM.
Regarding `Cc1cc(-c2cnc(N)c(-c3ccc4c(c3)CCNC4=O)c2)ccc1S(=O)(=O)N(C)C1CC1` [4-(6-amino-5-(1-oxo-1,2,3,4-tetrahydroisoquinolin-6-yl)pyridin-3-yl)-N-cyclopropyl-N,2-dimethylbenzenesulfonamide], the IC50 is below 0.01 µM under setting [1] and below 0.01 µM under setting [2].
Take `Nc1ncc(-c2ccc(S(=O)(=O)NC3CC3)cc2)nc1-c1ccc2c(c1)NCCNC2=O` [4-(5-amino-6-(5-oxo-2,3,4,5-tetrahydro-1H-benzo[e][1,4]diazepin-8-yl)pyrazin-2-yl)-N-cyclopropylbenzenesulfonamide]: the IC50 is, setting by setting: under setting [1], below 0.01 µM; under setting [2], below 0.01 µM.
Take `CCN(C)S(=O)(=O)c1cnc(-c2cnc(N)c(-c3ccc4c(c3)CCNC4=O)n2)cc1C` [6-(5-amino-6-(1-oxo-1,2,3,4-tetrahydroisoquinolin-6-yl)pyrazin-2-yl)-N-ethyl-N,4-dimethylpyridine-3-sulfonamide]: the IC50 reads like this: under setting [1], below 0.01 µM; under setting [2], below 0.01 µM.
With `CN(Cc1ccc(-c2cnc(N)c(-c3ccc4c(c3)CCNC4=O)c2)cc1)C1CC1` [6-(2-amino-5-(4-((cyclopropyl(methyl)amino)methyl)phenyl)pyridin-3-yl)-3,4-dihydroisoquinolin-1(2H)-one], the IC50 reads like this: under setting [1], below 0.05 µM; under setting [2], below 0.01 µM.
Consider `N#Cc1ccc(-c2cnc(N)c(-c3ccc4c(c3)CCNC4=O)n2)cc1` [4-(5-amino-6-(1-oxo-1,2,3,4-tetrahydroisoquinolin-6-yl)pyrazin-2-yl)benzonitrile], for which the IC50 runs as follows: under setting [1], below 0.05 µM; under setting [2], below 0.01 µM.
The matching figures for `COC(=O)CN(C)S(=O)(=O)c1ccc(-c2cnc(N)c(-c3ccc4c(c3)CCNC4=O)c2)cc1` [methyl 2-(4-(6-amino-5-(1-oxo-1,2,3,4-tetrahydroisoquinolin-6-yl)pyridin-3-yl)-N-methylphenylsulfonamido)acetate]: below 0.15 µM and below 0.05 µM.
As to `NC(=O)c1ccc(-c2cc(-c3ccc(C(=O)c4ccccc4)cc3)cnc2N)cc1` [4-(2-amino-5-(4-benzoylphenyl)pyridin-3-yl)benzamide], under setting [2], the 50% inhibitory concentration (IC50) is below 0.15 µM.
Take `C[C@@H]1C[C@H]1N(C)S(=O)(=O)c1ccc(-c2cnc(N)c(-c3ccc4c(c3)CCNC4=O)n2)cc1` [4-(5-amino-6-(1-oxo-1,2,3,4-tetrahydroisoquinolin-6-yl)pyrazin-2-yl)-N-methyl-N-((1R,2R)-2-methylcyclopropyl)benzenesulfonamide]: the IC50 under setting [1] was below 0.01 µM and the IC50 under setting [2] is below 0.01 µM.
On to `Nc1ncc(-c2ccc(S(=O)(=O)N3CCCC34CC4)cc2)cc1-c1ccc2c(c1)CCNC2=O` [6-(5-(4-(4-azaspiro[2.4]heptan-4-ylsulfonyl)phenyl)-2-aminopyridin-3-yl)-3,4-dihydroisoquinolin-1(2H)-one], for which the concentration for half-maximal inhibition (IC50) is below 0.05 µM under setting [1] and below 0.01 µM under setting [2].
With `CC(C)(c1ccc(-c2cnc(N)c(-c3ccc4c(c3)CCNC4=O)c2)cc1)N1CCOCC1` [6-(2-amino-5-(4-(2-morpholinopropan-2-yl)phenyl)pyridin-3-yl)-3,4-dihydroisoquinolin-1(2H)-one], the concentration for half-maximal inhibition (IC50) reads like this: under setting [1], below 0.05 µM; under setting [2], below 0.01 µM.
For `N#CC1(c2ccc(-c3cnc(N)c(-c4ccc5c(c4)NCCNC5=O)n3)cc2)CCOCC1` [4-(4-(5-amino-6-(5-oxo-2,3,4,5-tetrahydro-1H-benzo[e][1,4]diazepin-8-yl)pyrazin-2-yl)phenyl)tetrahydro-2H-pyran-4-carbonitrile] the same measures were below 0.05 µM and below 0.01 µM.
For `CC1(C)C(=O)NC(=O)c2ccc(-c3nc(-c4ccc(S(=O)(=O)NC5CC5)cc4)cnc3N)cc21` [4-(5-amino-6-(4,4-dimethyl-1,3-dioxo-1,2,3,4-tetrahydroisoquinolin-6-yl)pyrazin-2-yl)-N-cyclopropylbenzenesulfonamide] the same measures were below 0.15 µM and below 0.15 µM.
The matching figures for `CN(C1CC1)S(=O)(=O)c1ccc(-c2cnc(N)c(-c3ccc4c(=O)[nH]ccc4c3)c2)cc1` [4-(6-amino-5-(1-oxo-1,2-dihydroisoquinolin-6-yl)pyridin-3-yl)-N-cyclopropyl-N-methylbenzenesulfonamide]: below 0.01 µM and below 0.01 µM.
Regarding `[2H]C1([2H])CNC(=O)c2ccc(-c3nc(-c4ccc(S(=O)(=O)N(C5CC5)C([2H])([2H])[2H])cc4)cnc3N)cc21` [4-(5-amino-6-(4,4-dideutero-1-oxo-1,2,3,4-tetrahydroisoquinolin-6-yl)pyrazin-2-yl)-N-cyclopropyl-N-trideuteromethyl-benzenesulfonamide], the concentration for half-maximal inhibition (IC50) runs as follows: under setting [1], below 0.01 µM; under setting [2], below 0.01 µM.
With `C[C@@H]1COc2cc(-c3cc(-c4ccc(S(=O)(=O)N(C)C5CC5)cc4)cnc3N)ccc2C(=O)N1` [(R)-4-(6-amino-5-(3-methyl-5-oxo-2,3,4,5-tetrahydrobenzo[f][1,4]oxazepin-8-yl)pyridin-3-yl)-N-cyclopropyl-N-methylbenzenesulfonamide], the IC50 reads like this: under setting [1], below 0.01 µM; under setting [2], below 0.01 µM.
Turning to `CCNS(=O)(=O)c1ccc(-c2cnc(N)c(-c3ccc4c(O)ncnc4c3)c2)cc1` [4-(6-amino-5-(4-hydroxyquinazolin-7-yl)pyridin-3-yl)-N-ethylbenzenesulfonamide], the concentration for half-maximal inhibition (IC50) under setting [1] was below 0.05 µM and the IC50 under setting [2] is below 0.01 µM.
The matching figures for `C[C@H]1COc2cc(-c3cc(-c4ccc(S(=O)(=O)N(C)C5CC5)cc4)cnc3N)ccc2C(=O)N1` [(S)-4-(6-amino-5-(3-methyl-5-oxo-2,3,4,5-tetrahydrobenzo[f][1,4]oxazepin-8-yl)pyridin-3-yl)-N-cyclopropyl-N-methylbenzenesulfonamide]: below 0.05 µM and below 0.01 µM.
The matching figures for `CC(C)(O)c1ccc(-c2cnc(N)c(-c3ccc4c(c3)CCNC4=O)n2)cc1` [6-(3-amino-6-(4-(2-hydroxypropan-2-yl)phenyl)pyrazin-2-yl)-3,4-dihydroisoquinolin-1(2H)-one]: below 0.05 µM and below 0.01 µM.
For the compound `Cc1cc(-c2cnc(N)c(-c3ccc4c(c3)C3(CC3)CNC4=O)n2)ccc1S(=O)(=O)NC1CC1` [4-(5-amino-6-(1′-oxo-2′,3′-dihydro-1′H-spiro[cyclopropane-1,4′-isoquinolin]-6′-yl)pyrazin-2-yl)-N-cyclopropyl-2-methylbenzenesulfonamide], the concentration for half-maximal inhibition (IC50) is below 0.01 µM under setting [1] and below 0.01 µM under setting [2].
On to `CC(C)(C#N)c1ccc(-c2cnc(N)c(-c3ccc4c(c3)CCNC4=O)n2)s1` [2-(5-(5-amino-6-(1-oxo-1,2,3,4-tetrahydroisoquinolin-6-yl)pyrazin-2-yl)thiophen-2-yl)-2-methylpropanenitrile], for which the half-maximal inhibitory concentration (IC50) by setting is: under setting [1], below 0.05 µM; under setting [2], below 0.01 µM.
Consider `N#CC1(c2ccc(-c3cnc(N)c(-c4ccc5c(c4)C4(CC4)CNC5=O)n3)cc2)CC1` [1-(4-(5-amino-6-(1′-oxo-2′,3′-dihydro-1′H-spiro[cyclopropane-1,4′-isoquinolin]-6′-yl)pyrazin-2-yl)phenyl)cyclopropanecarbonitrile], for which the half-inhibitory concentration (IC50) was below 0.01 µM under setting [1] and below 0.01 µM under setting [2].
On to `CN(C)C(=O)COc1ccc(-c2cnc(N)c(-c3ccc(C(N)=O)cc3)c2)cc1` [4-(2-amino-5-(4-(2-(dimethylamino)-2-oxoethoxy)phenyl)pyridin-3-yl)benzamide], for which the 50% inhibitory concentration (IC50) under setting [2] is below 0.15 µM.
`N#CC1(c2ccc(-c3cnc(N)c(-c4ccc5c(c4)C4(CC4)CNC5=O)c3)cc2)CCOCC1` [4-(4-(6-amino-5-(1′-oxo-2′,3′-dihydro-1′H-spiro[cyclopropane-1,4′-isoquinolin]-6′-yl)pyridin-3-yl)phenyl)tetrahydro-2H-pyran-4-carbonitrile]: the half-maximal inhibitory concentration (IC50) under setting [1] is below 0.01 µM and the IC50 under setting [2] is below 0.01 µM.
On to `CCN(C)S(=O)(=O)c1ccc(-c2cnc(N)c(-c3ccc4c(c3)CCNC4=O)n2)cc1Cl` [4-(5-amino-6-(1-oxo-1,2,3,4-tetrahydroisoquinolin-6-yl)pyrazin-2-yl)-2-chloro-N-ethyl-N-methylbenzenesulfonamide], for which the IC50 is, setting by setting: under setting [1], below 0.01 µM; under setting [2], below 0.01 µM.

For the origin of these results see patent US8440652B2, “MST1 kinase inhibitors and methods of their use” (Lexicon Pharmaceuticals, Inc., priority 2011, dated 2013).
